Assay results reported in ChEMBL document CHEMBL4507266, “Data for DCP probe BAY-784” (2021).

What was measured:
[1] = molecular target: Sigma non-opioid intracellular receptor 1 (Homo sapiens) (UniProt Q99720); conditions: Compound concentration 10.0 uM
[2] = molecular target: 5-hydroxytryptamine receptor 2A (Homo sapiens) (UniProt P28223); conditions: Compound concentration 10.0 uM
[3] = molecular target: Serine/threonine-protein kinase DCLK1 (Homo sapiens) (UniProt O15075); conditions: Compound concentration 1000.0 nM
[4] = molecular target: Tyrosine-protein kinase ITK/TSK (Homo sapiens) (UniProt Q08881); conditions: Compound concentration 1000.0 nM
[5] = molecular target: Phosphatidylinositol 4-phosphate 3-kinase C2 domain-containing subunit beta (Homo sapiens) (UniProt O00750); conditions: Compound concentration 1000.0 nM
[6] = molecular target: Muscarinic acetylcholine receptor M3 (Homo sapiens) (UniProt P20309); conditions: Compound concentration 10.0 uM
[7] = molecular target: Non-receptor tyrosine-protein kinase TNK1 (Homo sapiens) (UniProt Q13470); conditions: Compound concentration 1000.0 nM
[8] = molecular target: Receptor tyrosine-protein kinase erbB-2 (Homo sapiens) (UniProt P04626); conditions: Compound concentration 1000.0 nM
[9] = molecular target: Dual specificity mitogen-activated protein kinase kinase 2 (Homo sapiens) (UniProt P36507); conditions: Compound concentration 1000.0 nM
[10] = molecular target: Tyrosine-protein kinase BTK (Homo sapiens) (UniProt Q06187); conditions: Compound concentration 1000.0 nM
[11] = molecular target: T1, D(4) dopamine receptor (Homo sapiens) (UniProt P21917); conditions: Compound concentration 10.0 uM
T1 sequence (whole entry): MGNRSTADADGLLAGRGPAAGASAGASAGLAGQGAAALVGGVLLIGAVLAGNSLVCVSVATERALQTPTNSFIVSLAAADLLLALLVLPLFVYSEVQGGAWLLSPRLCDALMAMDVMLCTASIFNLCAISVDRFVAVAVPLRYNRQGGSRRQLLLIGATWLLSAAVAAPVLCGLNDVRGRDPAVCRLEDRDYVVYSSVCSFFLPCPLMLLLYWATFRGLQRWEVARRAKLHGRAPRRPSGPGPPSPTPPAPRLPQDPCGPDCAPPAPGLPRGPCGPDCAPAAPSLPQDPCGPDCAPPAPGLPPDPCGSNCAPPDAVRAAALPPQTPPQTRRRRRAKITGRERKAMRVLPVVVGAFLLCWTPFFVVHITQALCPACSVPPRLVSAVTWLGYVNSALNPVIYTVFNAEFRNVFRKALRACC

[12] = test system: ALK tyrosine kinase receptor (Homo sapiens), Q9UM73 [L1196M]; conditions: Compound concentration 1000.0 nM
[13] = molecular target: Ephrin type-A receptor 3 (Homo sapiens) (UniProt P29320); conditions: Compound concentration 1000.0 nM
[14] = test system: ALK tyrosine kinase receptor (Homo sapiens), Q9UM73 [C1156Y]; conditions: Compound concentration 1000.0 nM
[15] = molecular target: Mitogen-activated protein kinase kinase kinase 13 (Homo sapiens) (UniProt O43283); conditions: Compound concentration 1000.0 nM
[16] = molecular target: Receptor tyrosine-protein kinase erbB-4 (Homo sapiens) (UniProt Q15303); conditions: Compound concentration 1000.0 nM
[17] = molecular target: Phosphatidylinositol 4-kinase beta (Homo sapiens) (UniProt Q9UBF8); conditions: Compound concentration 1000.0 nM
[18] = molecular target: Serine/threonine-protein kinase SBK1 (Homo sapiens) (UniProt Q52WX2); conditions: Compound concentration 1000.0 nM
[19] = molecular target: Death-associated protein kinase 2 (Homo sapiens) (UniProt Q9UIK4); conditions: Compound concentration 1000.0 nM
[20] = molecular target: Tyrosine-protein kinase SYK (Homo sapiens) (UniProt P43405); conditions: Compound concentration 1000.0 nM
[21] = molecular target: Uncharacterized serine/threonine-protein kinase SBK3 (Homo sapiens) (UniProt P0C264); conditions: Compound concentration 1000.0 nM
[22] = molecular target: Serine/threonine-protein kinase ULK1 (Homo sapiens) (UniProt O75385); conditions: Compound concentration 1000.0 nM
[23] = molecular target: NUAK family SNF1-like kinase 1 (Homo sapiens) (UniProt O60285); conditions: Compound concentration 1000.0 nM
[24] = molecular target: MAP kinase-interacting serine/threonine-protein kinase 1 (Homo sapiens) (UniProt Q9BUB5); conditions: Compound concentration 1000.0 nM
[25] = molecular target: Histamine H4 receptor (Homo sapiens) (UniProt Q9H3N8); conditions: Compound concentration 10.0 uM
[26] = molecular target: Hormonally up-regulated neu tumor-associated kinase (Homo sapiens) (UniProt P57058); conditions: Compound concentration 1000.0 nM
[27] = molecular target: NUAK family SNF1-like kinase 2 (Homo sapiens) (UniProt Q9H093); conditions: Compound concentration 1000.0 nM
[28] = molecular target: Peripheral plasma membrane protein CASK (Homo sapiens) (UniProt O14936); conditions: Compound concentration 1000.0 nM
[29] = molecular target: Casein kinase I isoform gamma-3 (Homo sapiens) (UniProt Q9Y6M4); conditions: Compound concentration 1000.0 nM
[30] = molecular target: Serine/threonine-protein kinase Nek10 (Homo sapiens) (UniProt Q6ZWH5); conditions: Compound concentration 1000.0 nM
[31] = molecular target: Serine/threonine-protein kinase Sgk3 (Homo sapiens) (UniProt Q96BR1); conditions: Compound concentration 1000.0 nM
[32] = molecular target: Testis-specific serine/threonine-protein kinase 1 (Homo sapiens) (UniProt Q9BXA7); conditions: Compound concentration 1000.0 nM
[33] = molecular target: Leucine-rich repeat serine/threonine-protein kinase 2 (Homo sapiens) (UniProt Q5S007); conditions: Compound concentration 1000.0 nM
[34] = molecular target: Mitogen-activated protein kinase 11 (Homo sapiens) (UniProt Q15759); conditions: Compound concentration 1000.0 nM
[35] = molecular target: Serine/threonine-protein kinase Sgk2 (Homo sapiens) (UniProt Q9HBY8); conditions: Compound concentration 1000.0 nM
[36] = molecular target: cGMP-dependent protein kinase 2 (Homo sapiens) (UniProt Q13237); conditions: Compound concentration 1000.0 nM
[37] = molecular target: Cyclin-dependent kinase 2 homolog (Plasmodium falciparum (isolate 3D7)) (UniProt P61075); conditions: Compound concentration 1000.0 nM
[38] = molecular target: Dual specificity mitogen-activated protein kinase kinase 6 (Homo sapiens) (UniProt P52564); conditions: Compound concentration 1000.0 nM
[39] = molecular target: Activin receptor type-1 (Homo sapiens) (UniProt Q04771); conditions: Compound concentration 1000.0 nM

Chain of Death-associated protein kinase 2 (Homo sapiens) (Q9UIK4 whole entry, looked up): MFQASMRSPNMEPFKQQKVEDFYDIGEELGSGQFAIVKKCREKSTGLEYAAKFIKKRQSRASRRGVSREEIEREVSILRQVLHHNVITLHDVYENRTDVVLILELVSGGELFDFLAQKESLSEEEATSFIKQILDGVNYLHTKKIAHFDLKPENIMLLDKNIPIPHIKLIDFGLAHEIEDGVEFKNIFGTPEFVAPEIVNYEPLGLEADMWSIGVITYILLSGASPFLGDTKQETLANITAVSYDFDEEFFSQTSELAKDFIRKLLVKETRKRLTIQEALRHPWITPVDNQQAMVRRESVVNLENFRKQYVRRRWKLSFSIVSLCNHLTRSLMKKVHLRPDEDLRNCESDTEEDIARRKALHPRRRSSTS
Chain of Receptor tyrosine-protein kinase erbB-2 (Homo sapiens) (P04626 whole entry): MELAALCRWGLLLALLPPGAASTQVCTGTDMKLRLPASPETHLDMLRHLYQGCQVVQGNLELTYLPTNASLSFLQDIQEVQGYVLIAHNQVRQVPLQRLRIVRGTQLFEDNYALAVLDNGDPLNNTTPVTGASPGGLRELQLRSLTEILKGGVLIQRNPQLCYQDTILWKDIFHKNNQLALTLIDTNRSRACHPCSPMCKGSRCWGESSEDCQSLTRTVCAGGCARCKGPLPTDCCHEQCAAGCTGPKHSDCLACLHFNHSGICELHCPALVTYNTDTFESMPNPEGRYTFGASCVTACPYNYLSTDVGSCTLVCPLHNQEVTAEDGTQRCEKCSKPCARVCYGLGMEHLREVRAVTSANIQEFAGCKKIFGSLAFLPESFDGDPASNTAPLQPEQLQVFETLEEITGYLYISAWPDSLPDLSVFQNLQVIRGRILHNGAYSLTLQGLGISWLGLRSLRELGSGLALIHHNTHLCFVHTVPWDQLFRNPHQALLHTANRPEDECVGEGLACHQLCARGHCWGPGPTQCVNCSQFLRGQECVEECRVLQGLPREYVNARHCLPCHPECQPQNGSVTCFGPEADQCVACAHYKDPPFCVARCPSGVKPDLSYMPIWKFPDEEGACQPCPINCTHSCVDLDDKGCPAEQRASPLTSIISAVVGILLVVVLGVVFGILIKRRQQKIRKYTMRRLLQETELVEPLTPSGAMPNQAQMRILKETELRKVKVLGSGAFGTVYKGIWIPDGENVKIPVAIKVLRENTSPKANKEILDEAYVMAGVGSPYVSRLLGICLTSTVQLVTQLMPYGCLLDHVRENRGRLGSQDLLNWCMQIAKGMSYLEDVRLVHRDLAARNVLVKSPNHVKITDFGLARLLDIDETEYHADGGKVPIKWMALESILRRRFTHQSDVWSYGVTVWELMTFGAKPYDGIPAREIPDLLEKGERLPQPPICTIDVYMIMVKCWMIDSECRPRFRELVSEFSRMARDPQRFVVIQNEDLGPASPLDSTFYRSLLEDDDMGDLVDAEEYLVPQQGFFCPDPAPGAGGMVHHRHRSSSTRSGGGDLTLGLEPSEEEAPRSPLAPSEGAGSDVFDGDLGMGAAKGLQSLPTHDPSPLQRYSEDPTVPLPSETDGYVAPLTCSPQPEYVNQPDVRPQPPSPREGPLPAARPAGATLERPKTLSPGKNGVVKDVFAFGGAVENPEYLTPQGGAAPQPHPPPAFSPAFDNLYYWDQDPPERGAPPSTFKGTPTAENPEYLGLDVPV
Chain of Phosphatidylinositol 4-kinase beta (Homo sapiens) (Q9UBF8 2-816 limits assumed): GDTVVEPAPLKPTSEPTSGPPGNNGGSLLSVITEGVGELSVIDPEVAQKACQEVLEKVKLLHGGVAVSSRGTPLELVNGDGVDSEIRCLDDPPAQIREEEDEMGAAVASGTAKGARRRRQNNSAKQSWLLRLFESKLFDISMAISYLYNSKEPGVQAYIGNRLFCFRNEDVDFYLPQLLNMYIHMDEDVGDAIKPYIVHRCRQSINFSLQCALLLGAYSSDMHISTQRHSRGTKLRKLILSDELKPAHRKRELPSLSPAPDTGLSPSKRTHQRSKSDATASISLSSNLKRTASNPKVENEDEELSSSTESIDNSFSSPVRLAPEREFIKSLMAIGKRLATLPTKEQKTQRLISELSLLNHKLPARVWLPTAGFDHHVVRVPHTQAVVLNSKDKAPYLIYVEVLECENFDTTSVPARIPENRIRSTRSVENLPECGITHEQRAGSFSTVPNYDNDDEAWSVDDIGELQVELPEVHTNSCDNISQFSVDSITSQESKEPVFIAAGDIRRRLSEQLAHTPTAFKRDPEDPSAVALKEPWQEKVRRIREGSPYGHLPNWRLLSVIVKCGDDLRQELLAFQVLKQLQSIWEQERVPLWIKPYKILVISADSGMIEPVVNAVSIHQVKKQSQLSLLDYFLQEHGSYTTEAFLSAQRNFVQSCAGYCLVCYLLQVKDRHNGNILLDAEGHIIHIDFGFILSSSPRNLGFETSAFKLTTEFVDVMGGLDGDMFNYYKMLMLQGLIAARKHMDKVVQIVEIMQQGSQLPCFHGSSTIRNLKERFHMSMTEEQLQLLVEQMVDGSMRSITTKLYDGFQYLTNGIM
Chain of Hormonally up-regulated neu tumor-associated kinase (Homo sapiens) (P57058 whole entry): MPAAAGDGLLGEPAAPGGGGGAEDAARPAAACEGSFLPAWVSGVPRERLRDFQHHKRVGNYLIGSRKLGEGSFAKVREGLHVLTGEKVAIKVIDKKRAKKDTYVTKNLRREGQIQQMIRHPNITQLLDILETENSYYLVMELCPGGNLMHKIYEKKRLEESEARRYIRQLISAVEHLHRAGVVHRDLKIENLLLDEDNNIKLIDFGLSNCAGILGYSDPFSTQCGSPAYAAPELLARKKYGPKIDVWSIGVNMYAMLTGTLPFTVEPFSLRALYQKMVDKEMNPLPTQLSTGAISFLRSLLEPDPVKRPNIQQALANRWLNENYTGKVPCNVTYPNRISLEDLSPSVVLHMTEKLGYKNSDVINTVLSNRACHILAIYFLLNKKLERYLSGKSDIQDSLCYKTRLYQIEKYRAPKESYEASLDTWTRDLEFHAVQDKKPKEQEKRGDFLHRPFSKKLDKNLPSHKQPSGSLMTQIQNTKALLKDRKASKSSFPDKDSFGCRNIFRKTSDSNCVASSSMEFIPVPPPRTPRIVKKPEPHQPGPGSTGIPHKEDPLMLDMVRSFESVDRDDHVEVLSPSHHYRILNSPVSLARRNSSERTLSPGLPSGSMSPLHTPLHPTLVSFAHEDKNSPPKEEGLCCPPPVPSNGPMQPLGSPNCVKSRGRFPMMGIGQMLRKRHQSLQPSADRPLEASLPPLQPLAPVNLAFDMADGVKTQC
Chain of Ephrin type-A receptor 3 (Homo sapiens) (P29320 whole entry): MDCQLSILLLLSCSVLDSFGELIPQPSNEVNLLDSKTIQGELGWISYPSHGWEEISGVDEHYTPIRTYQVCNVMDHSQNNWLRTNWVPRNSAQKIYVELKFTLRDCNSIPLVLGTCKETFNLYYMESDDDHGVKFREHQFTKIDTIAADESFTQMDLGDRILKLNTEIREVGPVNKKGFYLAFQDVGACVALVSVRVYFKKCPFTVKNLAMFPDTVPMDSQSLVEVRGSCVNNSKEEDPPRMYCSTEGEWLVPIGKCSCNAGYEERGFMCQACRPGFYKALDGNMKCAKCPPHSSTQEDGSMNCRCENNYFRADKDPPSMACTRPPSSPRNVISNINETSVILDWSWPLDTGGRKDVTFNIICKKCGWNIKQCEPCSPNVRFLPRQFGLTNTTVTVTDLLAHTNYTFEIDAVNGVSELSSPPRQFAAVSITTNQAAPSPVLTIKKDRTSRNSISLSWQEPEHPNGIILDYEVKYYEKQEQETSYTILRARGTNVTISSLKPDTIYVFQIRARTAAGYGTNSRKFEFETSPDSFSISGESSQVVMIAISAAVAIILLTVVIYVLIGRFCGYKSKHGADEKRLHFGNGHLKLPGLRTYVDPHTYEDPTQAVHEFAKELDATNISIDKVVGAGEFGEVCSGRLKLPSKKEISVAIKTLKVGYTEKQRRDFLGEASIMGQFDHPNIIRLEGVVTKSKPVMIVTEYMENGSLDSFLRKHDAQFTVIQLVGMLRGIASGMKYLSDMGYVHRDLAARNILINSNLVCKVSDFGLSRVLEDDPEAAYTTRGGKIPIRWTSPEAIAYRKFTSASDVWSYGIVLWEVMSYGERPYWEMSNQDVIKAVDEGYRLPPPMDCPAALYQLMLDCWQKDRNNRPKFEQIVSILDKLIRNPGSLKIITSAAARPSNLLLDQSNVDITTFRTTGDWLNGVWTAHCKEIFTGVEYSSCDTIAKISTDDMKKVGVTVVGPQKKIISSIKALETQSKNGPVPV
Chain of Mitogen-activated protein kinase 11 (Homo sapiens) (Q15759 whole entry): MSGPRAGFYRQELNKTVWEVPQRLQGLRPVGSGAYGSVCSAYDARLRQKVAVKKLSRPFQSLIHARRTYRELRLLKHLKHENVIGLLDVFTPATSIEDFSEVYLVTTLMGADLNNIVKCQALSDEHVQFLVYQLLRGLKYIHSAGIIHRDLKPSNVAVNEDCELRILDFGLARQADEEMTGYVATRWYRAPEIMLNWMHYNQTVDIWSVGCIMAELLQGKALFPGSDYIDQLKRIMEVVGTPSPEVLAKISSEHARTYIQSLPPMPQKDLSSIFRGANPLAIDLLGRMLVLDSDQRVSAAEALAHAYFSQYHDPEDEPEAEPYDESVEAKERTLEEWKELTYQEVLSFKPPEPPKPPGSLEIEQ
Chain of Serine/threonine-protein kinase SBK1 (Homo sapiens) (Q52WX2 whole entry): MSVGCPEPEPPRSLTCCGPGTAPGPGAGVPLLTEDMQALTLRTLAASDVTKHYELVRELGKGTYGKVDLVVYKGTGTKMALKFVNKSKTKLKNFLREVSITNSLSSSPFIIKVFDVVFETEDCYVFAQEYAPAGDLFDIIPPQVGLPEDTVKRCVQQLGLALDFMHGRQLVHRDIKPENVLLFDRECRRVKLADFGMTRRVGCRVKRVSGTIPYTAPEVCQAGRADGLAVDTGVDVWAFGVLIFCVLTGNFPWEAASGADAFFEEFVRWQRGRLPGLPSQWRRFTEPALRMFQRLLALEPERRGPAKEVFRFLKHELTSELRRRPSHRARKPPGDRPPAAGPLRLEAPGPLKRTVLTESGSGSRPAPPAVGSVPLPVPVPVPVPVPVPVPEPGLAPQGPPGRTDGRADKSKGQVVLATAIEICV

Row | SMILES | inhibition [1] | inhibition [2] | residual activity [3] | residual activity [4] | residual activity [5] | inhibition [6] | residual activity [7] | residual activity [8] | residual activity [9] | residual activity [10] | inhibition [11] | residual activity [12] | residual activity [13] | residual activity [14] | residual activity [15] | residual activity [16] | residual activity [17] | residual activity [18] | residual activity [19] | residual activity [20] | further results
1 | O=C(NCc1ncc(C(F)(F)F)cc1Cl)c1ccc2c(c1)C1(CCS(=O)(=O)CC1)[C@H](C1CC1)N2S(=O)(=O)c1ccc(F)cc1 [BAY-784] | 17.8% | -4.7% | 83% | 100% | 100% | 18.1% | 88% | 100% | 88% | 64% | 1.57% | 76% | 100% | 82% | 0% | 70% | 78% | 97% | 99% | 100% | residual activity [21]: 100%; residual activity [22]: 90%; residual activity [23]: 83%; residual activity [24]: 74%; inhibition [25]: -9.53%; residual activity [26]: 84%; residual activity [27]: 81%; residual activity [28]: 75%; residual activity [29]: 100%; residual activity [30]: 94%; residual activity [31]: 99%; residual activity [32]: 100%; residual activity [33]: 82%; residual activity [34]: 100%; residual activity [35]: 83%; residual activity [36]: 77%; residual activity [37]: 94%; residual activity [38]: 100%; residual activity [39]: 100%
2 | O=C(NCc1ncc(C(F)(F)F)cc1Cl)c1ccc2c(c1)C1(CCS(=O)(=O)CC1)[C@@H](C1CC1)N2S(=O)(=O)c1ccc(F)cc1 [BAY-786] | 37.6% | 5.01% | 74% | 100% | 90% | 14.4% | 88% | 100% | 78% | 73% | -5.22% | 87% | 67% | 100% | 0% | 72% | 100% | 92% | 90% | 100% | residual activity [21]: 100%; residual activity [22]: 80%; residual activity [23]: 88%; residual activity [24]: 78%; inhibition [25]: -6.68%; residual activity [26]: 85%; residual activity [27]: 75%; residual activity [28]: 64%; residual activity [29]: 100%; residual activity [30]: 83%; residual activity [31]: 83%; residual activity [32]: 100%; residual activity [33]: 98%; residual activity [34]: 100%; residual activity [35]: 77%; residual activity [36]: 89%; residual activity [37]: 97%; residual activity [38]: 100%; residual activity [39]: 97%
